ChEMBL document CHEMBL1142502, “An endoplasmic reticulum (ER) stress-suppressive compound and its analogues from the mushroom Hericium erinaceum” (Bioorg Med Chem, 2008)
Activity calls are given as the source filed them. The rule behind the calls is not given here.

Key:
Assay type in all cases: functional, cell-based
N2a [1] = experiment: Protection against tunicamycin-induced endoplasmic reticulum stress-dependent mouse Neuro2a cells death upto 10 ug/ml after 24 hrs by MTT assay
N2a [2] = experiment: Protection against thapsigargin-induced endoplasmic reticulum stress-dependent mouse Neuro2a cells death upto 10 ug/ml after 24 hrs by MTT assay
N2a [3] = experiment: Protection against thapsigargin-induced endoplasmic reticulum stress-dependent mouse Neuro2a cells death after 24 hrs by MTT assay
N2a [4] = experiment: Protection against tunicamycin-induced endoplasmic reticulum stress-dependent mouse Neuro2a cells death after 24 hrs by MTT assay

## COc1cc2c(c(O)c1C/C=C(\C)CCC=C(C)C)C(=O)OC2
N2a [1]
  Activity: inactive
N2a [2]
  Activity: inactive

## COc1cc2c(c3c1CCC(C)(CC(=O)C=C(C)C)O3)COC2=O (racemic)
N2a [1]
  Activity: inactive
N2a [2]
  Activity: inactive

## CCCCCCCCCCCCCCCC(=O)OCc1cc(OC)c2c(c1C=O)O[C@@](C)(CC(=O)C=C(C)C)[C@@H](O)C2 (relative stereo)
N2a [3]
  Activity: Dose-dependent effect
N2a [4]
  Activity: Dose-dependent effect
